# Key:
# [1] = Highest frequency of moderate liver toxicity observed during clinical trials, expressed as a percentage. [column '% BIOL' in source]; conditions: human
# [2] = Highest frequency of acute liver toxicity observed during clinical trials, expressed as a percentage. [column '% AIGUE' in source]; conditions: human
# [3] = Times to onset, minimal and maximal, observed in the indexed observations. [column 'DELAI' in source]; conditions: human
# [4] = Proposed mechanism(s) of liver damage. [column 'MEC' in source]; conditions: human
# [5] = human, serum
# [6] = human, serum; remark: listed apart in the source
# [7] = human
# [8] = human; remark: listed apart in the source
# [9] = human; remark: listed apart in the source
# [10] = human, serum, 4383 h
# [11] = human; remark: listed apart in the source
# [12] = human; remark: listed apart in the source
# [13] = human; remark: listed apart in the source
# [14] = human; remark: listed apart in the source
# [15] = human; remark: listed apart in the source
# [16] = human; remark: listed apart in the source
# [17] = human; remark: listed apart in the source
# [18] = Comments (NB not yet translated). [column 'COMMENTAIRES' in source]; conditions: human
# 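Throughout, for Hepatotoxicity (association with vascular disease): count of indexed literature references reporting vascular liver injury in humans, e.g. peliosis hepatitis, hepatic veno-occlusive disease or Budd-Chiari syndrome.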
# 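Throughout, for Hepatotoxicity (benign tumour): value is a count of indexed literature references citing a benign tumour confirmed by histopathology.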
# 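Throughout, for Hepatotoxicity (choleostasis): human cholestatic liver injury, shown by histopathology or by peak ALT or AST elevation over alkaline phosphatase ratio below 2, value counts indexed literature reports.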
# 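Throughout, for Hepatotoxicity (chronic liver disease): chronic liver injury confirmed by histopathology or persistently raised serum aminotransferase activity beyond 6 months, value given as the count of indexed literature references.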
# 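Throughout, for Hepatotoxicity (cirrhosis): value is a count of indexed literature references reporting cirrhosis confirmed by histopathology.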
# 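Throughout, for Hepatotoxicity (cytolytic): human cytolytic liver injury, shown by histopathology or by a ratio above 5 of peak ALT or AST elevation to alkaline phosphatase elevation, value counts indexed references.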
# 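Throughout, for Hepatotoxicity (granulomatous hepatitis): value is a count of indexed literature references reporting granulomatous liver disease confirmed by histopathology.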
# 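Throughout, for Hepatotoxicity (malignant tumour): malignant tumour confirmed by histopathology, value gives the count of indexed literature references reporting it.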
# 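Throughout, for Hepatotoxicity (severe hepatitis): human clinical data: severe hepatitis, meaning potentially life-threatening liver failure or clinically observed cases, the value counts how many indexed literature references report it.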
# 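Throughout, for Hepatotoxicity (steatosis): steatosis confirmed by histopathology, value is the count of indexed references.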
molecule,measurement,setting,value
Cc1c(N(C)C)c(=O)n(-c2ccccc2)n1C [AMINOPYRINE],Hepatotoxicity (moderate),[1]; Liver,0%
same,Hepatotoxicity (acute),[2]; Liver,0%
same,Hepatotoxicity (time to onset),[3],3 months
same,Hepatotoxicity (mechanism),[4],Dose-dependant
same,Hepatotoxicity (moderate),[5],2
same,Hepatotoxicity (acute),[6],6
same,Hepatotoxicity (cytolytic),[7],3
same,Hepatotoxicity (choleostasis),[8],1
same,Hepatotoxicity (severe hepatitis),[9]; Liver,2
same,Hepatotoxicity (chronic liver disease),[10],0
same,Hepatotoxicity (cirrhosis),[11],0
same,Hepatotoxicity (granulomatous hepatitis),[12],0
same,Hepatotoxicity (association with vascular disease),[13],0
same,Hepatotoxicity (steatosis),[14],1
same,Hepatotoxicity (malignant tumour),[15],0
same,Hepatotoxicity (benign tumour),[16],0
same,Hepatotoxicity (animal toxicity known),[17],yes
O=NN(CCCl)C(=O)NCCCl [CARMUSTINE],Hepatotoxicity (moderate),[1],26%
same,Hepatotoxicity (acute),[2],23%
same,Hepatotoxicity (time to onset),[3],1 week - 6 weeks
same,Hepatotoxicity (mechanism),[4],Dose-dependant
same,Hepatotoxicity (moderate),[5],8
same,Hepatotoxicity (acute),[6],6
same,Hepatotoxicity (cytolytic),[7],3
same,Hepatotoxicity (choleostasis),[8],1
same,Hepatotoxicity (severe hepatitis),[9],2
same,Hepatotoxicity (chronic liver disease),[10],0
same,Hepatotoxicity (cirrhosis),[11],0
same,Hepatotoxicity (granulomatous hepatitis),[12],0
same,Hepatotoxicity (association with vascular disease),[13],10
same,Hepatotoxicity (steatosis),[14],0
same,Hepatotoxicity (malignant tumour),[15],0
same,Hepatotoxicity (benign tumour),[16],0
same,Hepatotoxicity (animal toxicity known),[17],yes
COc1cc2c(c(OC)c1OC)-c1ccc(OC)c(=O)cc1[C@@H](NC(C)=O)CC2 [COLCHICINE],Hepatotoxicity (moderate),[1],28.6%
same,Hepatotoxicity (acute),[2],0%
same,Hepatotoxicity (time to onset),[3],2 hours - 2 days
same,Hepatotoxicity (mechanism),[4],Overdose
same,Hepatotoxicity (moderate),[5],2
same,Hepatotoxicity (acute),[6],7
same,Hepatotoxicity (cytolytic),[7],3
same,Hepatotoxicity (choleostasis),[8],0
same,Hepatotoxicity (severe hepatitis),[9],0
same,Hepatotoxicity (chronic liver disease),[10],0
same,Hepatotoxicity (cirrhosis),[11],0
same,Hepatotoxicity (granulomatous hepatitis),[12],0
same,Hepatotoxicity (association with vascular disease),[13],0
same,Hepatotoxicity (steatosis),[14],0
same,Hepatotoxicity (malignant tumour),[15],0
same,Hepatotoxicity (benign tumour),[16],0
same,Hepatotoxicity (animal toxicity known),[17],yes
C[C@@H](CN1CC(=O)NC(=O)C1)N1CC(=O)NC(=O)C1 [DEXRAZOXANE],Hepatotoxicity (moderate),[1],13%
same,Hepatotoxicity (acute),[2],0%
same,Hepatotoxicity (time to onset),[3],1 week
same,Hepatotoxicity (mechanism),[4],Dose-dependant
same,Hepatotoxicity (moderate),[5],3
same,Hepatotoxicity (acute),[6],0
same,Hepatotoxicity (cytolytic),[7],0
same,Hepatotoxicity (choleostasis),[8],0
same,Hepatotoxicity (severe hepatitis),[9],0
same,Hepatotoxicity (chronic liver disease),[10],0
same,Hepatotoxicity (cirrhosis),[11],0
same,Hepatotoxicity (granulomatous hepatitis),[12],0
same,Hepatotoxicity (association with vascular disease),[13],0
same,Hepatotoxicity (steatosis),[14],0
same,Hepatotoxicity (malignant tumour),[15],0
same,Hepatotoxicity (benign tumour),[16],0
same,Hepatotoxicity (animal toxicity known),[17],yes
CCOc1ccc(NC(C)=O)cc1 [PHENACETIN],Hepatotoxicity (moderate),[1],0%
same,Hepatotoxicity (acute),[2],0%
same,Hepatotoxicity (time to onset),[3],2 days - 2 years
same,Hepatotoxicity (mechanism),[4],Dose-dependant
same,Hepatotoxicity (moderate),[5],2
same,Hepatotoxicity (acute),[6],4
same,Hepatotoxicity (cytolytic),[7],0
same,Hepatotoxicity (choleostasis),[8],0
same,Hepatotoxicity (severe hepatitis),[9],0
same,Hepatotoxicity (chronic liver disease),[10],0
same,Hepatotoxicity (cirrhosis),[11],0
same,Hepatotoxicity (granulomatous hepatitis),[12],2
same,Hepatotoxicity (association with vascular disease),[13],0
same,Hepatotoxicity (steatosis),[14],1
same,Hepatotoxicity (malignant tumour),[15],0
same,Hepatotoxicity (benign tumour),[16],0
same,Hepatotoxicity (animal toxicity known),[17],yes
Nc1ccc(/N=N/c2ccccc2)c(N)n1 [PHENAZOPYRIDINE],Hepatotoxicity (moderate),[1],0%
same,Hepatotoxicity (acute),[2],0%
same,Hepatotoxicity (time to onset),[3],1 week
same,Hepatotoxicity (mechanism),[4],"Allergic, Toxic Metabolite"
same,Hepatotoxicity (moderate),[5],4
same,Hepatotoxicity (acute),[6],2
same,Hepatotoxicity (cytolytic),[7],0
same,Hepatotoxicity (choleostasis),[8],2
same,Hepatotoxicity (severe hepatitis),[9],0
same,Hepatotoxicity (chronic liver disease),[10],0
same,Hepatotoxicity (cirrhosis),[11],0
same,Hepatotoxicity (granulomatous hepatitis),[12],0
same,Hepatotoxicity (association with vascular disease),[13],0
same,Hepatotoxicity (steatosis),[14],0
same,Hepatotoxicity (malignant tumour),[15],0
same,Hepatotoxicity (benign tumour),[16],0
same,Hepatotoxicity (animal toxicity known),[17],yes
CO[C@H](C(=O)[C@@H](O)[C@@H](C)O)[C@@H]1Cc2cc3cc(O[C@H]4C[C@@H](O[C@H]5C[C@@H](O)[C@H](O)[C@@H](C)O5)[C@H](O)[C@@H](C)O4)c(C)c(O)c3c(O)c2C(=O)[C@H]1O[C@H]1C[C@@H](O[C@H]2C[C@@H](O[C@H]3C[C@](C)(O)[C@H](O)[C@@H](C)O3)[C@@H](O)[C@@H](C)O2)[C@H](O)[C@@H](C)O1 [PLICAMYCIN],Hepatotoxicity (moderate),[1],100%
same,Hepatotoxicity (acute),[2],0%
same,Hepatotoxicity (time to onset),[3],4 days
same,Hepatotoxicity (mechanism),[4],Dose-dependant
same,Hepatotoxicity (moderate),[5],24
same,Hepatotoxicity (acute),[6],6
same,Hepatotoxicity (cytolytic),[7],6
same,Hepatotoxicity (choleostasis),[8],0
same,Hepatotoxicity (severe hepatitis),[9],3
same,Hepatotoxicity (chronic liver disease),[10],0
same,Hepatotoxicity (cirrhosis),[11],0
same,Hepatotoxicity (granulomatous hepatitis),[12],0
same,Hepatotoxicity (association with vascular disease),[13],0
same,Hepatotoxicity (steatosis),[14],1
same,Hepatotoxicity (malignant tumour),[15],0
same,Hepatotoxicity (benign tumour),[16],0
same,Hepatotoxicity (animal toxicity known),[17],yes
COc1cc(NC(C)CCCN)c2ncccc2c1 (stereo not drawn) [PRIMAQUINE],Hepatotoxicity (moderate),[1],0%
same,Hepatotoxicity (acute),[2],0%
same,Hepatotoxicity (time to onset),[3],2 days
same,Hepatotoxicity (mechanism),[4],Overdose
same,Hepatotoxicity (moderate),[5],0
same,Hepatotoxicity (acute),[6],1
same,Hepatotoxicity (cytolytic),[7],1
same,Hepatotoxicity (choleostasis),[8],0
same,Hepatotoxicity (severe hepatitis),[9],0
same,Hepatotoxicity (chronic liver disease),[10],0
same,Hepatotoxicity (cirrhosis),[11],0
same,Hepatotoxicity (granulomatous hepatitis),[12],0
same,Hepatotoxicity (association with vascular disease),[13],0
same,Hepatotoxicity (steatosis),[14],0
same,Hepatotoxicity (malignant tumour),[15],0
same,Hepatotoxicity (benign tumour),[16],0
same,Hepatotoxicity (animal toxicity known),[17],yes
Cc1ccc(C(=O)c2cc(O)c(O)c([N+](=O)[O-])c2)cc1 [TOLCAPONE],Hepatotoxicity (moderate),[1]; Liver,14.3%
same,Hepatotoxicity (acute),[2]; Liver,0.7%
same,Hepatotoxicity (time to onset),[3],1 month - 6 months
same,Hepatotoxicity (mechanism),[4]; Liver,Mitochondrial toxicity
same,Hepatotoxicity (moderate),[5],6
same,Hepatotoxicity (acute),[6],6
same,Hepatotoxicity (cytolytic),[7]; Liver,6
same,Hepatotoxicity (choleostasis),[8]; Liver,0
same,Hepatotoxicity (severe hepatitis),[9]; Liver,5
same,Hepatotoxicity (chronic liver disease),[10],0
same,Hepatotoxicity (cirrhosis),[11],0
same,Hepatotoxicity (granulomatous hepatitis),[12]; Liver,0
same,Hepatotoxicity (association with vascular disease),[13],0
same,Hepatotoxicity (steatosis),[14],0
same,Hepatotoxicity (malignant tumour),[15],0
same,Hepatotoxicity (benign tumour),[16],0
same,Hepatotoxicity (animal toxicity known),[17],yes
ClC=C(Cl)Cl [TRICHLOROETHYLENE],Hepatotoxicity (moderate),[1],0%
same,Hepatotoxicity (acute),[2],0%
same,Hepatotoxicity (time to onset),[3],1 day - 6 weeks
same,Hepatotoxicity (mechanism),[4],Toxic Metabolite
same,Hepatotoxicity (moderate),[5],1
same,Hepatotoxicity (acute),[6],14
same,Hepatotoxicity (cytolytic),[7],14
same,Hepatotoxicity (choleostasis),[8],0
same,Hepatotoxicity (severe hepatitis),[9],14
same,Hepatotoxicity (chronic liver disease),[10],0
same,Hepatotoxicity (cirrhosis),[11],2
same,Hepatotoxicity (granulomatous hepatitis),[12],0
same,Hepatotoxicity (association with vascular disease),[13],0
same,Hepatotoxicity (steatosis),[14],0
same,Hepatotoxicity (malignant tumour),[15],0
same,Hepatotoxicity (benign tumour),[16],0
same,Hepatotoxicity (animal toxicity known),[17],yes
C[C@H](CCC(=O)O)[C@H]1CC[C@H]2[C@@H]3[C@@H](O)C[C@@H]4C[C@H](O)CC[C@]4(C)[C@H]3CC[C@]12C [URSODIOL],Hepatotoxicity (moderate),[1],4.2%
same,Hepatotoxicity (acute),[2],0%
same,Hepatotoxicity (time to onset),[3],3 weeks - 14 weeks
same,Hepatotoxicity (moderate),[5],8
same,Hepatotoxicity (acute),[6],1
same,Hepatotoxicity (cytolytic),[7],0
same,Hepatotoxicity (choleostasis),[8],0
same,Hepatotoxicity (severe hepatitis),[9],0
same,Hepatotoxicity (chronic liver disease),[10],0
same,Hepatotoxicity (cirrhosis),[11],0
same,Hepatotoxicity (granulomatous hepatitis),[12],0
same,Hepatotoxicity (association with vascular disease),[13],0
same,Hepatotoxicity (steatosis),[14],0
same,Hepatotoxicity (malignant tumour),[15],0
same,Hepatotoxicity (benign tumour),[16],0
same,Hepatotoxicity (animal toxicity known),[17],yes
ASPARAGINASE,Hepatotoxicity (moderate),[1],63%
same,Hepatotoxicity (acute),[2],2.9%
same,Hepatotoxicity (mechanism),[4],Dose-dependant
same,Hepatotoxicity (moderate),[5],27
same,Hepatotoxicity (acute),[6],2
same,Hepatotoxicity (cytolytic),[7],1
same,Hepatotoxicity (choleostasis),[8],0
same,Hepatotoxicity (severe hepatitis),[9],2
same,Hepatotoxicity (chronic liver disease),[10],0
same,Hepatotoxicity (cirrhosis),[11],0
same,Hepatotoxicity (granulomatous hepatitis),[12],0
same,Hepatotoxicity (association with vascular disease),[13],0
same,Hepatotoxicity (steatosis),[14],9
same,Hepatotoxicity (malignant tumour),[15],0
same,Hepatotoxicity (benign tumour),[16],0
same,Hepatotoxicity (animal toxicity known),[17],yes
BLEOMYCIN,Hepatotoxicity (moderate),[1],0%
same,Hepatotoxicity (acute),[2],0%
same,Hepatotoxicity (comment),[18],HYPERBILIRUBINEMIE
same,Hepatotoxicity (moderate),[5],1
same,Hepatotoxicity (acute),[6],0
same,Hepatotoxicity (cytolytic),[7],0
same,Hepatotoxicity (choleostasis),[8],0
same,Hepatotoxicity (severe hepatitis),[9],0
same,Hepatotoxicity (chronic liver disease),[10],0
same,Hepatotoxicity (cirrhosis),[11],0
same,Hepatotoxicity (granulomatous hepatitis),[12],0
same,Hepatotoxicity (association with vascular disease),[13],0
same,Hepatotoxicity (steatosis),[14],0
same,Hepatotoxicity (malignant tumour),[15],0
same,Hepatotoxicity (benign tumour),[16],0
same,Hepatotoxicity (animal toxicity known),[17],yes
